In US20220251095A1, “TRICYCLIC COMPOUND, PREPARATION METHOD THEREFOR AND USE THEREOF” (SHANGHAI JEMINCARE PHARMACEUTICALS CO., LTD., priority 2019, published 2022):

Tests used:
[1] = tested on: human plasma; experiment: Anticoagulant effect on human blood in vitro (APTT clotting time, CT2.0); settings: final concentration of compound corresponding to aPTT of the 2-fold blank control
Description: Activated partial thromboplastin time (APTT) measurement reagent was mixed with plasma and the reaction was carried out continuously resulting in a change in optical density up to the clotting point, and the clotting time (CT) was measured by optical turbidimetry using a semi-automatic coagulation analyzer. The in vitro anticoagulant activity of compounds on human blood was determined by detecting the clotting time of plasma treated with different concentrations of compounds, and the corresponding concentration of compounds prolonging clotting time was calculated.
Human plasma used in the experiment was purchased from HD Biosciences (Shanghai) Co., Ltd.; Activated partial thromboplastin time determination kit was purchased from Taizhou Zhongqin Shidi Biotechnology Co., Ltd., Item No. SS00220005.
(§1) The compounds were dissolved in 100% DMSO, 20 mM, and stored at room temperature in a nitrogen cabinet.
a. The NaCl reagent in the kit was incubated half an hour in advance, and the APTT reagent was balanced to room temperature.
b. The compound was continuously diluted at 14 concentration points using a Bravo liquid workstation with a 2-fold gradient.
c. 0.75 μL of the compound was added to the measuring cup, double-replicate wells; 50 μL of plasma was added and 50 μL of APTT reagent was added, the mixture was mixed well and put into coagulation analyzer for incubation at 37° C. for 3 minutes.
d. APTT assay was started, 50 μL of NaCl was added to start the reaction, and the clotting time was counted.
e. Control clotting time was measured using 100% DMSO instead of the compound, and the final concentration of DMSO was 0.5%.
Data were curve-fitted using Graphpad Prism to calculate CT2.0, the final concentration of compound corresponding to aPTT of the 2-fold blank control was calculated.

[2] = Pharmacokinetic experiment in rats, intravenous injection and oral administration; assay type: in vivo; settings: male Sprague Dawley rats; for F: intragastric administration 2 mg/kg vs intravenous 1 mg/kg; for AUC(0-inf) / Cmax / half-life / clearance / Vd: rat, plasma; for Vd: read-out: Vz
Description: In this experimental embodiment, in vivo pharmacokinetic evaluation was performed in rats by intravenous injection and oral administration.
Experimental methods and conditions: Male Sprague Dawley rats were given the test compound 1 mg/Kg (intravenous injection, solvent 5% DMSO/10% Solutol/85% Saline) and 2 mg/Kg (intragastric administration, solvent 0.5% MC) by respectively; 5 min, 15 min, 30 min, 1 hr, 2 hr, 4 hr, 6 hr, 8 hr, 24 hr after administration, blood was collected from submandibular vein, 0.20 mL was collected from each sample , and heparin sodium was used for anticoagulation. After collection, the sample was placed on ice, and the plasma was centrifuged to be measured within 1 hour. Plasma drug concentration in plasma was detected by liquid chromatography tandem mass spectrometry (LC/MS/MS) to calculate pharmacokinetic parameters.

[3] = target: T1, coagulation factor XIa protease (FXIa) (Homo sapiens, UniProt P03951); experiment: Inhibition of coagulation factor XIa (FXIa), chromogenic substrate, absorbance at 405; assay type: biochemical; settings: FXIa 0.05 μg/mL, substrate 2.5 mM, 37° C. 15 minutes
T1 construct: purchased Abcam ab62411
T1 sequence (P03951 388-625 limits assumed): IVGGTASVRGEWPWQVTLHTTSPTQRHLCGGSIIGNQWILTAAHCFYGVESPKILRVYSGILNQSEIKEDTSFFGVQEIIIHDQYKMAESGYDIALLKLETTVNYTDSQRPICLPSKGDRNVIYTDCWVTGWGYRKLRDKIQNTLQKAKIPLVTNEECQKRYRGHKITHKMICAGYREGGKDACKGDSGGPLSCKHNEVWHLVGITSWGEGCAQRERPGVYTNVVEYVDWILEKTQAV
T1 sequence (P03951 19-387 partner limits assumed): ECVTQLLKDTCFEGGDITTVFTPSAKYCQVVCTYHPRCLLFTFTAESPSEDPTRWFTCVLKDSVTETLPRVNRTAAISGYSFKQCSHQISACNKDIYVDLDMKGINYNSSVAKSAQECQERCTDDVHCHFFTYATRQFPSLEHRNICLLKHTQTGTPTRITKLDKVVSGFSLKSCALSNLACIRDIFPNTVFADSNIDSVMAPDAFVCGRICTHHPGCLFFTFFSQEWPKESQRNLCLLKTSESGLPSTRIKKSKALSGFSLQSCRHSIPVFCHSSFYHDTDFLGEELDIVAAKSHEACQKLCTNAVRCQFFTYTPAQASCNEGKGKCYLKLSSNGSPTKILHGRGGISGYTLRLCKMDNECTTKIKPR
Description: Coagulation factor XIa protease (FXIa) decomposed the specific substrate to produce yellow p-nitroaniline (pNA), pNA had strong absorption at 405 nm. The inhibitory activity of the compounds on coagulation factor XIa was determined by assaying the absorbance of the compounds at […].
The coagulation factor XIa protease used in the experiment was purchased from Abcam Company, Item No. ab62411; the coagulation factor XIa-specific substrate was purchased from HYPHEN BioMed, Item No. Biophen cs-21 (66); tris-HCl was purchased from Invitrogen, Item No. 15567-027; NaCl was purchased from ABCONE, Item No. S39168; Twain 20 was purchased from Amersco, Item No. 0777-1L.
as §1
a. 20 mM of the tested compound was diluted to 2 mM using 100% DMSO, and the reference compound was diluted to 0.4 mM; the compound was continuously diluted with a 3-fold gradient at 10 concentration points using a Bravo liquid workstation.
b. The ECHO liquid workstation was used to transfer 10 nL of compound to the corresponding 384-well experimental plate with double replicate wells; the final concentrations of compound reactions were 1000, 333.3, 111.1, 37.0, 12.3, 4.1, 1.37, 0.46, 0.15, and 0.05 nM. The final concentrations of reference compounds were 200, 66.7, 22.2, 7.4, 2.47, 0.82, 0.27, 0.09, 0.03, 0.01 nM.
c. 10 nL DMSO and 10 nL 0.4 mM reference compounds were transferred to high signal control pores and low signal control pores respectively.
d. 0.1 μg/mL FXIa enzyme solution was prepared with buffer solution, and 10 μL enzyme solution was added to 384-well experimental plate, 5 mM substrate solution was prepared using buffer solution, and […] substrate solution was added to a 384-well experimental plate. The final concentration of FXIa was 0.05 μg/mL and the final concentration of the substrate was 2.5 mM.
e. The 384-hole experimental plate was centrifuged and incubated at 37° C. for 15 minutes.
f. The absorbance was measured at 405 nm using EnVision.

[4] = po, intragastric administration 2 mg/kg
[5] = intravenous administration 1 mg/kg

F [2] [%]	AUC(0-inf) [2, 4] [µg·h/mL]	Cmax [2, 4] [µg/mL]	half-life [2, 4] [h]	AUC(0-inf) [2, 5] [µg·h/mL]	clearance [2, 5] [L/h/kg]	half-life [2, 5] [h]	Vd [2, 5] [L/kg]	IC50 [3] [nM]	SMILES	CT2.0 [1] [µM]
25.32	3.31	0.709	1.63	6.53	0.16	1.65	0.349	3.34	Nc1ccc(-c2nc(F)c([C@@H]3[C@H]4C[C@H]4c4cc(-c5cc(Cl)ccc5-n5cnnn5)cc(=O)n43)[nH]2)c(F)n1 [Embodiment 36]	0.42
								0.83	Nc1n[nH]c2cc(-c3[nH]c([C@@H]4[C@H]5C[C@H]5c5cc(-c6cc(Cl)ccc6-n6cc(C(F)F)nn6)cc(=O)n54)nc3F)ccc12 [Embodiment 83]	0.82
								0.31	Nc1n[nH]c2c(F)c(-c3cnc([C@@H]4[C@H]5C[C@H]5c5cc(-c6cc(Cl)ccc6-n6cnnn6)cc(=O)n54)[nH]3)ccc12 [Embodiment 86]	0.20
								12.5	O=C1CCc2cc(-c3cnc([C@@H]4[C@H]5C[C@H]5c5nc(-c6cc(Cl)ccc6-n6cc(Cl)nn6)cc(=O)n54)[nH]3)ccc2N1 [Embodiment 89]	1.29
28.4	17.6	1.83	3.16	26.9	0.0378	3.41	0.18	6.33	O=C1CCc2c(ccc(-c3cnc([C@@H]4[C@H]5C[C@H]5c5nc(-c6cc(Cl)ccc6-n6cc(Cl)nn6)cc(=O)n54)[nH]3)c2F)N1 [Embodiment 90]	0.63
								3.93	O=C1CCc2c(ccc(-c3cnc([C@@H]4[C@H]5C[C@H]5c5nc(-c6cc(Cl)ccc6-n6cc(Cl)nn6)cc(=O)n54)[nH]3)c2Cl)N1 [Embodiment 91]	2.27
								4.24	O=C1CCc2cc(-c3[nH]c([C@@H]4[C@H]5C[C@H]5c5nc(-c6cc(Cl)ccc6-n6cc(Cl)nn6)cc(=O)n54)nc3F)ccc2N1 [Embodiment 92]	0.83
